Measurements taken from ChEMBL document CHEMBL2331101, “Aldosterone synthase inhibitors” (ACS Med Chem Lett, 2013).
pIC50: −log10 of the molar value.

Legend:
Format in all cases: cell-based
CYP11B1 = target: T1, CYP11B1 (Homo sapiens, UniProt P15538); experiment: (§1) Inhibition of human Cyp11B1 transfected in chinese hamster V79MZ cells using deoxycorticosterone as substrate incubated for 60 mins prior to substrate addition measured after 25 mins by HPLC analysis; details: human, Chinese hamster V79MZ cells transfected with human CYP11B1, probe deoxycorticosterone
T1 sequence (P15538 whole entry): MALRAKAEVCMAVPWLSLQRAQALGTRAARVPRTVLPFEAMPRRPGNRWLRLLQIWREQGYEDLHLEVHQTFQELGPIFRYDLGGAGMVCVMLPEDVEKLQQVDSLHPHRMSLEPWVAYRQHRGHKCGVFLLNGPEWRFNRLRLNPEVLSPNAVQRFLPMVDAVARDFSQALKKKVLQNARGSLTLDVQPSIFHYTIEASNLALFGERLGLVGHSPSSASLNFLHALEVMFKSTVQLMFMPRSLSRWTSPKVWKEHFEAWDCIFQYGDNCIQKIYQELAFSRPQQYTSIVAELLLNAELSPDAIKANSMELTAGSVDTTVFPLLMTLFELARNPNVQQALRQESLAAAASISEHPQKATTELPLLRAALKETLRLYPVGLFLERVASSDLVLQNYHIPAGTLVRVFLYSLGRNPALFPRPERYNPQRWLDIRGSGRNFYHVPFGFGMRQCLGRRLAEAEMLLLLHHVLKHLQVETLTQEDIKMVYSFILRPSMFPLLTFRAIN

[1] = target: T2, Cytochrome P450 11B1, mitochondrial (Homo sapiens, UniProt P15538); experiment: as §1
T2 sequence (P15538 whole entry): T1 sequence (P15538 whole entry)

[2] = target: T3, Cytochrome P450 11B2, mitochondrial (Homo sapiens, UniProt P19099); experiment: Inhibition of human Cyp11B2 transfected in chinese hamster V79MZ cells using deoxycorticosterone as substrate incubated for 60 mins prior to substrate addition measured after 50 mins by HPLC analysis
T3 sequence (P19099 whole entry): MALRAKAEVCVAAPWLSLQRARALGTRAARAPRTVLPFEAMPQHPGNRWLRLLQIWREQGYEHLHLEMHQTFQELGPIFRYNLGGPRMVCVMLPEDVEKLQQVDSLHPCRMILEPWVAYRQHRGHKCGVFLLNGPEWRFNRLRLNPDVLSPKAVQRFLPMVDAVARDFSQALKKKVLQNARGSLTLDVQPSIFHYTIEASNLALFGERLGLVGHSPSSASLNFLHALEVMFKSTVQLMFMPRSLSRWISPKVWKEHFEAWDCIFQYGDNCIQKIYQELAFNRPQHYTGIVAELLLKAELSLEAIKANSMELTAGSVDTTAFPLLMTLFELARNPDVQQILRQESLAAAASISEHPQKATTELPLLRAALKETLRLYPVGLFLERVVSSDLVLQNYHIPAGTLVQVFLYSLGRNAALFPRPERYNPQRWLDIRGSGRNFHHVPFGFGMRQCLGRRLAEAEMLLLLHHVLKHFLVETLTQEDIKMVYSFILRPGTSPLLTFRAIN

SMILES	IC50 at 25 min (CYP11B1) [nM]	pIC50 [1]	pIC50 [2]
Cc1nnc2n1-c1cc(Cl)c(-c3cncc4ccccc34)cc1CC2	> 10000	–	–
COc1c(C)cncc1-c1cc2c(cc1F)-n1c(C)nnc1CC2	> 10000	–	–
COC(C)(C)c1cncc(-c2ccc3c(c2)CCc2nnc(C)n2-3)c1	–	6.97	8.30
Cc1nnc2n1-c1c(Cl)cc(-c3cnccc3C(F)(F)F)cc1CC2	> 30000	–	–
Cc1nnc2n1-c1ccc(-c3cncc4ccccc34)cc1CC2	–	6.39	8.30
